Source: EPA's ToxValDB 9.5

Columns and labels:
[1] = test system: Labeo boga; details: whole body
[2] = test system: Monkey; details: short-term; duration: 29 days; oral; capsule; M; Cynomolgus; blood: basophils + blood: eosinophils + blood: lymphocytes + blood: monocytes + blood: reticulocytes + blood: segmented neutrophils + blood…
[3] = test system: Bird; details: subchronic, duration: 8 week, oral, drinking water, M, Japanese quail
[4] = test system: Rattus norvegicus; details: subchronic; duration: 90 days; oral; diet; M; Crl:CD(SD) BR; Body Weight Changes: Weight gain decrease + Absolute Organ Weight: Liver increase + Relative Organ Weight: Liver increase + Histopathology: …
[5] = test system: Oryctolagus sp.; details: acute, dermal; for LOAEL: duration: 1 days
[6] = test system: Monkey; details: oral
[7] = short-term, duration: 7 day, M, Medaka, liver IL-1Beta/Beta-actin mRNA ratio + liver IL-6/Beta-actin mRNA ratio
[8] = short-term, duration: 21 day, M/F, mRNA expression levels of IgM in spleen + mRNA expression levels of IL-1 beta in spleen + mRNA expression levels of myd88 in spleen
[9] = chronic, duration: 26 weeks, M, Cynomolgus, Body Weight: 12% decrease by week 10
[10] = chronic, duration: 26 weeks, M, Cynomolgus, Endocrine: Significant decrease in serum TT4 (27-35%) and FT4 (30-38%)

O=C([O-])C(F)(F)C(F)(F)C(F)(F)C(F)(F)C(F)(F)C(F)(F)C(F)(F)F.[NH4+] [Ammonium perfluorooctanoate]
LOEL [1, 7]: 50 mg/L
NOEL [1, 7]: 10 mg/L
LOEL ([1]; short-term, duration: 7 day, M, Medaka, liver TNF-alpha/Beta-actin mRNA ratio): 10 mg/L
LOEL ([1]; short-term, duration: 15 day, M/F, Medaka, c-type lysozyme mRNA expression): 1 mg/L
NOEL ([1]; short-term, duration: 15 day, M/F, Medaka, complement component C3-1 mRNA expression): 1 mg/L
LOEL ([1]; short-term, duration: 21 day, M/F, Atlantic Salmon, cortisol): 0.1 mg/L
LOEL ([1]; short-term, duration: 21 day, M/F, mRNA expression levels of IgD in spleen + mRNA expression levels of IgZ in spleen + mRNA expression levels of IL-21 in spleen + mRNA …): 0.05 mg/L
LOEL [1, 8]: 0.1 mg/L
NOEL [1, 8]: 0.05 mg/L
LOEL ([1]; subchronic, duration: 48 day, M/F, Atlantic Salmon, cortisol): 0.1 mg/L
NOEL ([1]; subchronic, duration: 48 day, M/F, Atlantic Salmon, fresh weight + length + thymus: thymus somatic index + thymus: thymus volume): 0.1 mg/L
LOEL ([1]; subchronic, duration: 56 day, M/F, Atlantic Salmon, cortisol): 0.1 mg/L
NOEL [2]: 20 mg/kg-day
LOEL ([3]; PHA skin test (DTH response)): 2.1 mg/kg-day
NOEL ([3]; PHA skin test (DTH response)): 0.2 mg/kg-day
NOEL ([3]; bacteremia (subsequent to E. coli challenge) + cellulitis (subsequent to E. coli challenge) + chemiluminescence of ROS produced by innate …): 2.1 mg/kg-day
NOAEL [4]: 0.096 mg/kg-day
LOAEL ([5]; Albino, Ocular: Moderate eye irritation): 100 mg
LOAEL ([5]; M, New Zealand, Death: 14-day LD50): 4300 mg/kg-day
NOAEL ([5]; duration: 24 hours, Albino): 500 mg
LOAEL [6, 9]: 20 mg/kg-day
NOAEL [6, 9]: 10 mg/kg-day
LOAEL [6, 10]: 10 mg/kg-day
NOAEL [6, 10]: 3 mg/kg-day
LOAEL ([6]; chronic, duration: 26 weeks, M, Cynomolgus, Hepatic: 36% increase in absolute liver weight at ?3 mg/kg/day / increased serum triglyceride levels at 30/20 mg/kg/day): 3 mg/kg-day
NOAEL ([6]; chronic, duration: 26 weeks, M, Cynomolgus, Immunotoxicological: No histological alterations + Neurological: No histological alterations + Reproductive: No histological alterations): 20 mg/kg-day
LOAEL ([6]; short-term, duration: 2 weeks, M/F, Rhesus, Death: Unspecified number out of four died on week 2): 100 mg/kg-day
NOAEL ([6]; subchronic, duration: 30 days, M, Cynomolgus, Endocrine: No alterations in serum levels of thyroid hormones and TSH and histopathology of adrenals + Reproductive: No alterations in serum…): 20 mg/kg-day
NOAEL ([6]; subchronic, duration: 90 days, M/F, Rhesus): 30 mg/kg-day
LOAEL ([6]; subchronic, duration: 90 days, M/F, Rhesus, Body Weight: 33% body weight loss by week 6 + Death: One male and two females died during weeks 7-12): 30 mg/kg-day
NOAEL ([6]; subchronic, duration: 90 days, M/F, Rhesus, Body Weight: 33% body weight loss by week 6 + Gastrointestinal: Emesis + Immunotoxicological: Atrophy of lymphoid follicles in spleen and …): 10 mg/kg-day
LOAEL ([6]; subchronic, duration: 90 days, M/F, Rhesus, Gastrointestinal: Emesis + Immunotoxicological: Atrophy of lymphoid follicles in spleen and lymph nodes + Neurological: Hypoactivity and …): 30 mg/kg-day
NOAEL ([6]; subchronic, duration: 90 days, M/F, Rhesus, Reproductive: No histological alterations in testes or ovaries): 100 mg/kg-day
